“Also recorded” adds a separate entry of the source. Where two headings read alike, the source gives them in different places. Blank lines part the entries; values can stand above or below the substance they belong to.
What was measured:
[1] = BIAcore biosensor kinetic parameters of biotin binding in streptavidin muteins; conditions: for ka or kon / kd or koff / Kd: BIAcore, biotinylated IgG on chip, mutein injected; for Kd: read-out: Kd (biotin binding affinity); for t1/2, half-life of biotin in the SAV-biotin complex: estimated as 0.693/koff/60
Protocol: The kinetic parameters for these muteins were determined using the BIAcore biosensor. Biotinylated IgG proteins were immobilized to the sensor chip and purified streptavidin muteins were injected to determine the binding properties:
(§1) Other methods. BIAcore biosensor for determining the kinetic parameters, preparation of streptavidin-agarose matrix and purification of biotinylated proteins were performed as previously described (Wu and Wong, 2005a; Wu and Wong, 2005b).

[2] = tested on: biotinylated protein G and biotinylated IgG; test: Mutein-agarose affinity matrix: purification of biotinylated proteins, matrix stability and reuse; conditions: comparison of FIGS. 7 and 10
Protocol: as §1
Stable subunit interactions in the 8-aa-loop-H127 mutein. The purified 8-aa-loop-H127C mutein can be immobilized to the agarose matrix with an estimated concentration of 3.8 mg/ml of settled agarose beads. […] Since it is likely that only one subunit in an tetrameric 8-aa-loop-H127C mutein was chemically coupled to the matrix (the other three subunits associated with the immobilized subunit via non-covalent interactions), this observation illustrates that the subunit interactions between the subunits in the tetrameric 8-aa-loop-H127C mutein were stable enough and the non-covalently associated subunits were not washed off from the column under the conditions used for the binding, washing and elution processes.
Application of the 8-aa-loop-H127C mutein-agarose matrices for purification of biotinylated protein G and biotinylated IgG. […] The bound biotinylated proteins could be eluted off from the column using 4 mM biotin (FIGS. 7 and 8).

[3] = Binding to biotin-agarose, elution with 4 mM biotin, rebinding after dialysis
Protocol: In order to characterize these muteins, it is essential to purify each of these muteins for further analyses. […] After dialysis to remove any biotin from the pooled elution fraction, the purified muteins could rebind to the biotin-agarose matrix and could be eluted off again by 4 mM biotin in the buffer. This indicates the reversible biotin binding capability in these muteins.
Production and affinity purification of streptavidin muteins. Bacillus subtilis cells carrying the expression vectors were cultivated in super-rich medium (Wu et al., 2002) at 30° C. for 9-12 hours. Culture supernatant was collected by centrifugation and streptavidin muteins were affinity purified using biotin-agarose as described previously (Wu and Wong, 2005a).
Bound biotin in the 8-aa-loop-H127C mutein can be removed by dialysis. Purified 8-aa-loop-H127C muteins eluted from the biotin agarose by 4 mM biotin will contain bound biotin. If biotin binding is reversible, bound biotin should be removable by dialysis. Indeed, the dialyzed 8-aa-loop-H127C muteins could rebind to the biotin-agarose column and could be eluted off from the column by 4 mM biotin in the elution buffer (FIG. 5). […] Some 8-aa-loop-H127C mutein molecules could be observed in the flow-through fraction. This is probably because of overloading the column with excess muteins.

[4] = Ligand energy inspector, Molegro molecular viewer (MolDock score), biotin binding pocket of subunit A
Protocol: Replacement of residues in loop7-8 of the wild-type streptavidin results in allowing loop7-8 to become flexible and changing the relative orientation of subunits in the tetrameric structure. These structural changes lead to lowering of the biotin binding affinity in the 8-aa-loop-H127C mutein. The strength of biotin interaction with streptavidin was analyzed using the ligand energy inspector function in the Molegro molecular viewer program (Thomsen and Christensen, 2006). The more the negative value indicates the stronger interaction. […] In reference to the wild-type streptavidin, a few residues in the 8-aa-loop-H127C mutein have a little bit stronger interactions with biotin (data not shown). However, the net outcome is that the 8-aa-loop-H127C mutein has a weaker biotin binding affinity.

[5] = literature values, cited from earlier work
[6] = known value, cited from earlier work

Substance: 6-aa-loop mutein: streptavidin mutein with engineered loop7-8 D S N G S G (SEQ ID NO: 16) (DSNGSG; listed as Bacillus subtilis)
ka or kon [1]: 24300 M⁻¹ s⁻¹
kd or koff [1]: 7.59e-05 s⁻¹
t1/2, half-life of biotin in the SAV-biotin complex [1]: 152 min

Substance: W120A mutein: streptavidin mutein with Trp-120 changed to alanine [reference compound]
Kd ([5]; read-out: dissociation constant (Kd) for biotin): 3 nM

Substance: Wild-type streptavidin: 52,800 dalton tetrameric protein from Streptomyces avidinii, SEQ ID NO:1
dissociation constant (Kd) for biotin [5]: 10^−13 to 10^−14 M
isoelectric point (pI) [6]: ~5
isoelectric point (pI) ([6]; listed as natural streptavidin): 5-6

Continued, in another order:

ka or kon [1]: 49600 M⁻¹ s⁻¹
kd or koff [1]: 0.0004 s⁻¹
Kd ([1]; listed as ΔW-HC): 8.1 nM
Kd [1]: ~1 nM
t1/2, half-life of biotin in the SAV-biotin complex [1]: 28.9 min
Substance: ΔWHC: streptavidin mutein with Trp-120 deleted (loop T T E A N A K) and H127C mutation (SEQ ID NO: 13) (TTEANAK; listed as Bacillus subtilis)

ka or kon [1]: 22100 M⁻¹ s⁻¹
kd or koff [1]: 0.000428 s⁻¹
Kd [1]: 19 nM
t1/2, half-life of biotin in the SAV-biotin complex [1]: 27 min
Difference (wild-type − mutein), Asn 23 ([4]; residue contribution): −1.1
Difference (wild-type − mutein), Asp128 ([4]; residue contribution): −3.3
Difference (wild-type − mutein), Leu 25 ([4]; residue contribution): −0.8
Difference (wild-type − mutein), Lys 121 (from subunit D) ([4]; residue contribution): −1.3
Difference (wild-type − mutein), Ser 45 ([4]; residue contribution): −1.4
Difference (wild-type − mutein), Trp 120 (from subunit D) ([4]; residue contribution): −10.5
Difference (wild-type − mutein), MolDock score ([4]; total): −14.4
Substance: 8-aa-loop-H127C mutein: tetrameric streptavidin mutein, loop7-8 replaced by D S S N G S D G, with H127C mutation (SEQ ID NO: 14) (DSSNGSDG; listed as Bacillus subtilis)
binding capacity of the matrix for biotinylated protein G [2]: much better binding capacity than the matrix with the Roche streptavidin mutein
reversible biotin binding [3]: can bind to biotin-agarose and can be eluted off from the matrix by 4 mM biotin; also recorded: biotin binds to this protein in a reversible manner
